The conditions of series [1]: United States population, 2015–2016; cited from earlier work.
Series [2] addresses bovine serum albumin (BSA) (Bos taurus, UniProt P02769). Format: binding. The settings on record: 310 K; for critical [PFAS]:[BSA] ratio denoting the shift from binding site to surface adsorption: Δδ begins to plateau.
For series [3] the following is noted: estimated; cited from earlier work.
Series [4] deals with HSA. The settings on record: 310 K; cited from earlier work.

Here are results for seven compounds from publication PMC8479757 (Chemosphere, 2020).

Chain of bovine serum albumin (BSA) (P02769 25-607): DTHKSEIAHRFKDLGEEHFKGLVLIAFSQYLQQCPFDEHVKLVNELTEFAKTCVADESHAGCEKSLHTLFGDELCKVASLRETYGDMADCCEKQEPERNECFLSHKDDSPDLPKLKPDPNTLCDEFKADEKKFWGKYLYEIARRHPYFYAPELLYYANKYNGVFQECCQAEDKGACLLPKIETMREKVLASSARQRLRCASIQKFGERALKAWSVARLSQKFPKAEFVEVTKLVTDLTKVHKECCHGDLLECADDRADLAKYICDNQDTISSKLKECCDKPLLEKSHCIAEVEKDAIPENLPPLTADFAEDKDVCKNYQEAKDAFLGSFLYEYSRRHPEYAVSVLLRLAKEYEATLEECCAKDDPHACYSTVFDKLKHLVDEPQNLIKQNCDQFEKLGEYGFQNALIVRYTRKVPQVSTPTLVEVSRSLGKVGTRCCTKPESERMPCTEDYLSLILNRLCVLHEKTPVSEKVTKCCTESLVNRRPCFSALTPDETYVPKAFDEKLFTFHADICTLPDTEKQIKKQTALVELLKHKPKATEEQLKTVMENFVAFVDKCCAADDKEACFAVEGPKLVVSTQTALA

For `O=S(=O)(O)C(F)(F)C(F)(F)C(F)(F)C(F)(F)C(F)(F)C(F)(F)F` [PFHxS, perfluorohexanesulfonic acid], the average serum concentration in series [1] is 0.577 µg/L. Further, in series [2], the “critical [PFAS]:[BSA] ratio denoting the shift from binding site to surface adsorption” value is given as 12–14.
As for `O=C(O)C(F)(F)C(F)(F)C(F)(F)C(F)(F)C(F)(F)C(F)(F)C(F)(F)C(F)(F)F` [PFNA, perfluorononanoic acid], the average serum concentration in series [1] is 1.18 µg/L. The half-life in humans in series [3] is given as 2.5 years. In addition, the “critical [PFAS]:[BSA] ratio denoting the shift from binding site to surface adsorption” value in series [2] is 12–14.
Turning to `O=C(O)C(F)(F)C(F)(F)C(F)(F)C(F)(F)C(F)(F)C(F)(F)C(F)(F)F` [PFOA, perfluorooctanoic acid], the average serum concentration in series [1] was 1.56 µg/L. In series [2], the “critical [PFAS]:[BSA] ratio denoting the shift from binding site to surface adsorption” value is recorded as 12–14. In series [2] (Ka (ω, terminal −CF3 position), BSA, pH 7.4 PBS, Ka=Kd^−1), this compound showed a dissociation constant Kd of 6.45 µM.
Take `O=S(=O)(O)C(F)(F)C(F)(F)C(F)(F)C(F)(F)C(F)(F)C(F)(F)C(F)(F)C(F)(F)F` [PFOS, perfluorooctanesulfonic acid]: in series [1], the average serum concentration is 4.72 µg/L. For the same compound, the half-life in humans in series [3] is on record as 5.4 years. In addition, in series [2] (BSA, pH 7.4 PBS, Ka=Kd^−1), the “Ka (ω, terminal −CF3 position)” value worked out at 357 mM⁻¹.
Regarding `CCCCCCCCCC(=O)O` [decanoic acid], the “Ka for binding to HSA” value in series [4] is 100 mM⁻¹.
For `CCCCCC(=O)O` [hexanoic acid], in series [4], the “Ka for binding to HSA” value was 15 mM⁻¹.
For `CCCCCCCC(=O)O` [octanoic acid], in series [4], the “Ka for binding to HSA” value was 34 mM⁻¹.

One may read the Kd as the constant that tells how readily two partners part at equilibrium. Read a high Kd as a looser complex.
